In patent publication US9241941B2, “Methods for treatment of lymphomas with mutations in cell cycle genes” (priority 2012, dated 2016):

Key:
xenografted DoHH2 tumors = assay: DoHH2 xenograft treatment study; format: in vivo, NOD/SCID mice; details: for course of tumors after the treatment course / durability of response / tumor growth during the treatment course: PD 150 mg/kg p.o., ABT 50 mg/kg i.v., alternate days, days 1-14
Protocol: Xenografts and treatment studies. Xenograft mice were generated as described (Schatz et al., J Exp Med 208:1799-1807 (2011)); briefly, s.c. injection of 5 Mio DoHH2 or SU-DHL-8 human lymphoma cells mixed with matrigel (BD Bioscience, 354230) into the flanks of NOD/SCID (NOD.CB17-Prkdc^scid/J) mice. […] The control animals were treated with 50 mmol/L sodium lactate (pH4), PTD solution and 5% of Dextrose in water solution respectively. Tumors were weighed and volumes were measured twice weekly.
The translocation t(14;18) is the cytogenetic hallmark of FL and promotes lymphoma cell survival by activating the anti-apoptotic BCL2 protein. BH3 mimetic drugs like ABT-737 block BCL2 function by inserting into the BH3-binding groove of anti-apoptotic BCL2 proteins (Oltersdorf et al., Nature 435:677-681 (2005)).

[1] = tested on: cell lines that carry the translocation t(14;18) (DoHH2, Su-DHL-6, Su-DHL-16, Ly8); assay: Viability / apoptosis of human lymphoma lines after in vitro treatment; format: cell-based; details: for induction of apoptosis / cell death in vitro, single agent: FL-derived cell lines, 1 μM; for selectivity for cell lines carrying translocation t(14;18): panel of human lymphoma lines, viability after 24 h
Protocol: Cell culture, cell cycle and viability assays. Lymphoma cell lines DoHH2, Ly-8, Su-DHL-6, Su-DHL-16, Su-DHL-8 and Su-DHL-10 were maintained in RPMI 1640 with 10% fetal bovine serum, 1% L-Glutamine and 1% penicillin/streptomycin. […] Briefly, cells were seed at 5×10^5 per mL and they were treated with PD-0332991 and/or ABT-737 and/or Obatoclax. After 24 h of treatment cell viability was assessed using CellTiter-Glo reagent (Promega).

vavBcl2/c-MYC lymphomas = assay: Treatment of primary murine vavBcl2/c-MYC lymphomas in vivo
Protocol: Generation of mice. The vavP Bcl2 mouse model of FL (Lowe et al., Nature 432:307-315 (2004)) was adapted to adoptive transfer of retrovirally transduced HPCs^1. Data were analyzed in Kaplan-Meier format using the log-rank (Mantel-Cox) test for statistical significance. H&E, Ki67, TUNEL, P-RB, and surface marker analysis were as in (Staudt, N Engl J Med 356:741-742 (2007)).
Most FL cell lines are derived from transformed FLs and are carry the hallmark translocation t(14;18). These include DoHH2, Su-DHL-6, Su-DHL-16 and Ly 8 cells. These lines also have high levels of CDK4, CDK6, and phosphorylated RB (S780 and S795) (FIG. 10A) and DoHH2 cells carry a homozygous p16 deletion (Gronbaek et al., Leukemia 14:1727-1735 (2000)). To examine the effect of targeted therapies, the inventors first treated DoHH2, Su-DHL6, Su-DHL-16, and Ly8 cells with increasing doses of PD-0332991. […] Further, knockdown of either CDK4 or CDK6 alone was not sufficient for cell cycle arrest indicating functional compensation between these homologous RB kinases and the requirement to block both (FIG. 10I/J). Given the limitations of transformed FL-derived lines, the inventors also tested PD-0332991 against primary murine vavBcl2 induced lymphomas in vivo.

vavBcl2/CDK4 lymphoma = assay: Treatment of primary murine vavBcl2/CDK4 lymphomas in vivo; details: lymphocyte counts
[2] = tested on: DoHH2, Su-DHL6, Su-DHL-16, and Ly8 cells; assay: Cell cycle assay in human lymphoma cell lines; format: cell-based
Protocol: Cell culture, cell cycle and viability assays. Lymphoma cell lines DoHH2, Ly-8, Su-DHL-6, Su-DHL-16, Su-DHL-8 and Su-DHL-10 were maintained in RPMI 1640 with 10% fetal bovine serum, 1% L-Glutamine and 1% penicillin/streptomycin. Human lymphoma cell lines treated with PD-0332991 and Obatoclax were analyzed for cell viability and cell cycle assays. Briefly, cells were seed at 5×10^5 per mL and they were treated with PD-0332991 and/or ABT-737 and/or Obatoclax. After 24 h of treatment cell viability was assessed using CellTiter-Glo reagent (Promega). Cell cycle assay based on uptake of DNA staining dye using Cell Cycle Reagent assays (cat. 4700-0169 from Guava Technologies, Millipore) was performed following to manufacturer instructions.

[3] = tested on: RB phosphorylation (Ser 780); assay: Immunoblot for RB phosphorylation in treated lymphoma cells; format: cell-based, human; details: DoHH2, Su-DHL6, Su-DHL-16, Ly8 cells treated with PD-0332991
Protocol: Western blot analysis. Immunoblots were performed from whole cell lysates or tissue samples as described (Steidl et al., Nature 471:377-381 (2011)). Briefly, 30 μg of protein/sample were resolved on SDS-PAGE gels and transferred to Immobilon-P-membranes (Millipore). Antibodies were against Rb (Cell Signaling cat #9309), Phospho-Rb S780 (Cell Signaling cat #3590), Phospho-Rb S795 (Cell Signaling cat #7986), CDK4 (Cell Signaling cat #2906), CyclinD3 (Cell Signaling cat #2936), Cyclin D1 (Cell Signaling cat #2926), Cyclin D2 (Cell Signaling cat #2924) p16 (Santa Cruz Biotechnology cat # sc 1207), Caspase 3 (Cell Signaling cat #9662) Tubulin (1:5000; Sigma, B-5-1-2). Enhanced chemiluminescence was used for detection (ECL, Amersham).

SMILES	course of tumors after the treatment course / durability of response (xenografted DoHH2 tumors)	tumor growth during the treatment course (xenografted DoHH2 tumors)	cell death in tumors in vivo (caspase cleavage, TUNEL) (xenografted DoHH2 tumors; tumors at end of treatment)	induction of apoptosis / cell death in vitro, single agent [1]	selectivity for cell lines carrying translocation t(14;18) [1]	response of lymphoma bearing animals (vavBcl2/c-MYC lymphomas; histologically transformed vavBcl2/c-MYC lymphomas)	time by which all animals succumbed to disease (vavBcl2/c-MYC lymphomas; vav-Bcl2/Myc tumor bearing animals treated with PD-0332991)	response of lymphoma bearing animals (vavBcl2/CDK4 lymphoma)	RB phosphorylation (Ser 780) in tumors in vivo (xenografted DoHH2 tumors; immunoblot on lysates of treated tumors)	proliferation by Ki67 in tumors in vivo (xenografted DoHH2 tumors; immunohistochemistry at end of treatment)	cell cycle arrest after RB knockdown ([2]; DoHH2 cells expressing RB shRNA, PD-0332991 1 μM)	growth and cell cycle profile ([2]; increasing doses of PD-0332991, 24 h, all four lines)	RB phosphorylation in cells [3]
CN(C)CC[C@H](CSc1ccccc1)Nc1ccc(S(=O)(=O)NC(=O)c2ccc(N3CCN(Cc4ccccc4-c4ccc(Cl)cc4)CC3)cc2)cc1[N+](=O)[O-] [ABT-737]	residual tumors rapidly expanded thereafter	somewhat restrained tumor growth	significant cell death	powerfully induced apoptosis and caspase cleavage	selective activity against cell lines that carry the translocation t(14;18)	–	–	–	–	–	–	–	–
COC1=CC(c2cc3ccccc3[nH]2)=N/C1=C\c1[nH]c(C)cc1C [Obatoclax]	–	–	–	potently induced cell death	less selective for cells carrying the translocation t(14;18)	–	–	–	–	–	–	–	–
CC(=O)c1c(C)c2cnc(Nc3ccc(N4CCNCC4)cn3)nc2n(C2CCCC2)c1=O [PD-0332991]	residual tumors rapidly expanded thereafter	somewhat restrained tumor growth	–	–	–	ineffective	≤ 10 days	induced responses	complete loss of RB phosphorylation (Ser 780)	slowed proliferation by Ki67	knockdown of RB bypassed the cell cycle arrest	complete growth arrest and accumulation in the G1 phase	loss of RB phosphorylation
